Inhibition data for seven compounds are collected here from ChEMBL document CHEMBL3132769, “Fragment growing to retain or alter the selectivity of anchored kinase hinge-binding fragments” (Medchemcomm, 2014).

The target of assay [1] is Mitogen-activated protein kinase 14 (Homo sapiens) (UniProt Q16539). The experiment in a line: Inhibition of human truncated p38 alpha expressed in Escherichia coli cell assessed as substrate phosphorylation using fluorescence-labelled peptides as substrate at 8 uM after 90 mins by microfluidic peptide phosphorylation assay.
Assay [2] has as its target Vascular endothelial growth factor receptor 2 (Homo sapiens) (UniProt P35968). The experiment in a line: Inhibition of human KDR cytoplasmic domain expressed in baculovirus assessed as substrate phosphorylation using fluorescence-labelled peptides as substrate at 8 uM after 90 mins by microfluidic peptide phosphorylation assay.
The target in assay [3] is RAF proto-oncogene serine/threonine-protein kinase (Homo sapiens) (UniProt P04049). The experiment in a line: Inhibition of human truncated c-Raf expressed in baculovirus assessed as substrate phosphorylation using fluorescence-labelled peptides as substrate at 420 uM after 90 mins by microfluidic peptide phosphorylation assay.
Assay [4] has as its target Calcium/calmodulin-dependent protein kinase type II subunit gamma (Homo sapiens) (UniProt Q13555). Conditions: 0.1 uM.
Description: Inhibition of human CAMK2 gamma catalytic domain expressed in baculovirus assessed as substrate phosphorylation using fluorescence-labelled peptides as substrate at 0.1 uM after 90 mins by microfluidic peptide phosphorylation assay
Assay [5] has as its target MAP/microtubule affinity-regulating kinase 3 (Homo sapiens) (UniProt P27448). The experiment in a line: Inhibition of human full length c-TAK1 expressed in Escherichia coli cell assessed as substrate phosphorylation using fluorescence-labelled peptides as substrate at 0.1 uM after 90 mins by microfluidic peptide phosphorylation assay.
Assay [6] addresses Protein kinase C gamma type (Homo sapiens) (UniProt P05129). The experiment in a line: Inhibition of human truncated PKC gamma expressed in baculovirus assessed as substrate phosphorylation using fluorescence-labelled peptides as substrate at 0.1 uM after 90 mins by microfluidic peptide phosphorylation assay.
Assay [7] addresses T1, Serine/threonine-protein kinase D2 (Homo sapiens) (UniProt Q9BZL6).
T1 sequence (whole entry): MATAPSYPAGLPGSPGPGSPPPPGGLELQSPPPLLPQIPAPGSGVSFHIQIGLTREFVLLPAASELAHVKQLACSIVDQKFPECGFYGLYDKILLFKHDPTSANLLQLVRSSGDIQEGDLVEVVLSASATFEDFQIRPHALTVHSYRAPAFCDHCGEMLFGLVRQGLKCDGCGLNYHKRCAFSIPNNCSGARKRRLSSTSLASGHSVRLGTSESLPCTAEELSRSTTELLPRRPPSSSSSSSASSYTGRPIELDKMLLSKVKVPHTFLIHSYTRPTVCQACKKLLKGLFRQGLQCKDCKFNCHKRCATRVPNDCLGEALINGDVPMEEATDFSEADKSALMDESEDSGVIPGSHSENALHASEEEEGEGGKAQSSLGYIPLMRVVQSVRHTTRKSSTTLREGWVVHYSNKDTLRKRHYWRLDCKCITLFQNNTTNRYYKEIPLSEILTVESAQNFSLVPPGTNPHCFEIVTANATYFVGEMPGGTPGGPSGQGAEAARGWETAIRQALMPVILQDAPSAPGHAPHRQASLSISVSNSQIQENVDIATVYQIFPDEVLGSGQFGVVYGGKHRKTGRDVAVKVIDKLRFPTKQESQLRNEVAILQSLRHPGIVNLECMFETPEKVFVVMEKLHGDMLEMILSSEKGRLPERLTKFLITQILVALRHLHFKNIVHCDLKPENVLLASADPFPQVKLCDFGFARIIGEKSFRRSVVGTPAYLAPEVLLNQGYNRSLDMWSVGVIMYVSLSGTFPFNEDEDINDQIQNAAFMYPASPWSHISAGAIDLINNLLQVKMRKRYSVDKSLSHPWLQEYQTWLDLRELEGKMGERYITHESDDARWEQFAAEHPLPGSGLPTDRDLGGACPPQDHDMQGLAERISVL
The conditions noted are these: 0.1 uM.
Description: Inhibition of human full length PKD2 expressed in baculovirus assessed as substrate phosphorylation using fluorescence-labelled peptides as substrate at 0.1 uM after 90 mins by microfluidic peptide phosphorylation assay

Assay [8] addresses Aurora kinase B (Homo sapiens) (UniProt Q96GD4). The experiment in a line: Inhibition of human full length AurB expressed in baculovirus assessed as substrate phosphorylation using fluorescence-labelled peptides as substrate at 0.2 uM after 90 mins by microfluidic peptide phosphorylation assay.
Assay [9] deals with Fibroblast growth factor receptor 3 (Homo sapiens) (UniProt P22607). The experiment in a line: Inhibition of human FGFR3 catalytic domain expressed in baculovirus assessed as substrate phosphorylation using fluorescence-labelled peptides as substrate at 9 uM after 90 mins by microfluidic peptide phosphorylation assay.
Assay [10] deals with Dual specificity tyrosine-phosphorylation-regulated kinase 1A (Rattus norvegicus) (UniProt Q63470). The experiment in a line: Inhibition of rat full length DYRK1a expressed in Escherichia coli cell assessed as substrate phosphorylation using fluorescence-labelled peptides as substrate at 70 uM after 90 mins by microfluidic peptide phosphorylation assay.
The target in assay [11] is Fibroblast growth factor receptor 1 (Homo sapiens) (UniProt P11362). The experiment in a line: Inhibition of human FGFR1 catalytic domain expressed in baculovirus assessed as substrate phosphorylation using fluorescence-labelled peptides as substrate at 70 uM after 90 mins by microfluidic peptide phosphorylation assay.
In assay [12] the target is T2, Serine/threonine-protein kinase Sgk2 (Homo sapiens) (UniProt Q9HBY8).
T2 sequence (whole entry): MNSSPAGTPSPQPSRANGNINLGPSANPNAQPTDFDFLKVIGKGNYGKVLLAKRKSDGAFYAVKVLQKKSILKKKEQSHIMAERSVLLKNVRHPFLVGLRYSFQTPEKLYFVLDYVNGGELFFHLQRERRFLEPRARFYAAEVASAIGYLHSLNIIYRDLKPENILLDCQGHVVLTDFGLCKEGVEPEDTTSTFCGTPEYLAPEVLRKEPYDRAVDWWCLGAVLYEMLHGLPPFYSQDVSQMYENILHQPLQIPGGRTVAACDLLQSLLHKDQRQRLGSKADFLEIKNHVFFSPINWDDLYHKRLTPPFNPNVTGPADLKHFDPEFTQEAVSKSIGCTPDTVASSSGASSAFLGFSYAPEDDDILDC
The experiment in a line: Inhibition of human full length SGK2 expressed in baculovirus assessed as substrate phosphorylation using fluorescence-labelled peptides as substrate at 1000 uM after 90 mins by microfluidic peptide phosphorylation assay.

The target in assay [13] is T3, Calcium/calmodulin-dependent protein kinase type IV (Homo sapiens) (UniProt Q16566).
T3 sequence (whole entry): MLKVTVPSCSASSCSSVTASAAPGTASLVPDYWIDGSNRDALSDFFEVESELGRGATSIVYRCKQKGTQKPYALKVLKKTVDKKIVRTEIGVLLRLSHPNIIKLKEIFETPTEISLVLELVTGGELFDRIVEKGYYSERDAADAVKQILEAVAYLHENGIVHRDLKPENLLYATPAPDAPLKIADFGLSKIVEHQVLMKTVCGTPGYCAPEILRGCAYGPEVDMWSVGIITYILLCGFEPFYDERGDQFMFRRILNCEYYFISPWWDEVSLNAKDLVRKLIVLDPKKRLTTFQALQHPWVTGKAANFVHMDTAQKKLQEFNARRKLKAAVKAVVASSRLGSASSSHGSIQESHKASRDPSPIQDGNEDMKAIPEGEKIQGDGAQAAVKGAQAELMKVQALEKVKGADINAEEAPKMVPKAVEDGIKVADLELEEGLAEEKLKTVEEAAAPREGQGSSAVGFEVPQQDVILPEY
The experiment in a line: Inhibition of human full length CAMK4 expressed in baculovirus assessed as substrate phosphorylation using fluorescence-labelled peptides as substrate at 1000 uM after 90 mins by microfluidic peptide phosphorylation assay.

MAP/microtubule affinity-regulating kinase 3 (Homo sapiens), sequence (P27448 whole entry, looked up, the tested form may be a part): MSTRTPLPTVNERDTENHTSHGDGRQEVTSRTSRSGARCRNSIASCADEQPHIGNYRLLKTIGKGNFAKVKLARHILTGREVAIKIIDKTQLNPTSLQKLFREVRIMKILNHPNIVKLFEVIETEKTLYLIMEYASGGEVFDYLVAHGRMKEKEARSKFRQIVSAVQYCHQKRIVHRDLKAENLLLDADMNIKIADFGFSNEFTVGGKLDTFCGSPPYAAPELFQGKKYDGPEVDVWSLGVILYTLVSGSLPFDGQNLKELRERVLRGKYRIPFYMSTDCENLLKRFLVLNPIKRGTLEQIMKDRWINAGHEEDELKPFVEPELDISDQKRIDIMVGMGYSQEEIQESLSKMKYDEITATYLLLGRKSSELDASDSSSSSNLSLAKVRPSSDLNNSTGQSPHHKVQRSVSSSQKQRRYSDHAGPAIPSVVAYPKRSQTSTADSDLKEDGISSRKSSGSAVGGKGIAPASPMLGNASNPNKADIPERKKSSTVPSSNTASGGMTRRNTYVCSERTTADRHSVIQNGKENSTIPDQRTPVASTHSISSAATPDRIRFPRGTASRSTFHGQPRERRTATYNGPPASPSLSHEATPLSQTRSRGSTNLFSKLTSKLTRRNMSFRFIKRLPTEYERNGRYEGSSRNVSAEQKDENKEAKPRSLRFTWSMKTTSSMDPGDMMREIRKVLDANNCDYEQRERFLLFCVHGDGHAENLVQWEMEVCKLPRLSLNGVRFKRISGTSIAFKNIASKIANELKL
RAF proto-oncogene serine/threonine-protein kinase (Homo sapiens), sequence (P04049 whole entry, the tested form may be a part): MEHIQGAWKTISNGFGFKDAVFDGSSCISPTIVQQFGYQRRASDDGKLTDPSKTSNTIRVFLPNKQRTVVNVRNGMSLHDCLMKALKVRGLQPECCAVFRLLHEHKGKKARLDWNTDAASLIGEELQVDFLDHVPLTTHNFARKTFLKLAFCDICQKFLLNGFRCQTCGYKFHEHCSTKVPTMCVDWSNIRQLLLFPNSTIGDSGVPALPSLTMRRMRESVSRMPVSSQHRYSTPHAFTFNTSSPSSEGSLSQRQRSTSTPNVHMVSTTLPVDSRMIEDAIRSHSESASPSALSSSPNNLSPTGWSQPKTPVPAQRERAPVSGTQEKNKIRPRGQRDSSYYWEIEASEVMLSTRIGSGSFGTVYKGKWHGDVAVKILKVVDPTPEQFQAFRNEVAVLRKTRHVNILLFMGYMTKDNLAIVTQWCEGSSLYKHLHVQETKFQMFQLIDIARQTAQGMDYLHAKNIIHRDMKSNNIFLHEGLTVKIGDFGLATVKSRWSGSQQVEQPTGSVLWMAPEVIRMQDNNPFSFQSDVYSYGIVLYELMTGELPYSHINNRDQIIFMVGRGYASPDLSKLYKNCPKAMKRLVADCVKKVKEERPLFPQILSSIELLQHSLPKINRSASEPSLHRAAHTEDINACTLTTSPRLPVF
Vascular endothelial growth factor receptor 2 (Homo sapiens), sequence (P35968 whole entry, the tested form may be a part): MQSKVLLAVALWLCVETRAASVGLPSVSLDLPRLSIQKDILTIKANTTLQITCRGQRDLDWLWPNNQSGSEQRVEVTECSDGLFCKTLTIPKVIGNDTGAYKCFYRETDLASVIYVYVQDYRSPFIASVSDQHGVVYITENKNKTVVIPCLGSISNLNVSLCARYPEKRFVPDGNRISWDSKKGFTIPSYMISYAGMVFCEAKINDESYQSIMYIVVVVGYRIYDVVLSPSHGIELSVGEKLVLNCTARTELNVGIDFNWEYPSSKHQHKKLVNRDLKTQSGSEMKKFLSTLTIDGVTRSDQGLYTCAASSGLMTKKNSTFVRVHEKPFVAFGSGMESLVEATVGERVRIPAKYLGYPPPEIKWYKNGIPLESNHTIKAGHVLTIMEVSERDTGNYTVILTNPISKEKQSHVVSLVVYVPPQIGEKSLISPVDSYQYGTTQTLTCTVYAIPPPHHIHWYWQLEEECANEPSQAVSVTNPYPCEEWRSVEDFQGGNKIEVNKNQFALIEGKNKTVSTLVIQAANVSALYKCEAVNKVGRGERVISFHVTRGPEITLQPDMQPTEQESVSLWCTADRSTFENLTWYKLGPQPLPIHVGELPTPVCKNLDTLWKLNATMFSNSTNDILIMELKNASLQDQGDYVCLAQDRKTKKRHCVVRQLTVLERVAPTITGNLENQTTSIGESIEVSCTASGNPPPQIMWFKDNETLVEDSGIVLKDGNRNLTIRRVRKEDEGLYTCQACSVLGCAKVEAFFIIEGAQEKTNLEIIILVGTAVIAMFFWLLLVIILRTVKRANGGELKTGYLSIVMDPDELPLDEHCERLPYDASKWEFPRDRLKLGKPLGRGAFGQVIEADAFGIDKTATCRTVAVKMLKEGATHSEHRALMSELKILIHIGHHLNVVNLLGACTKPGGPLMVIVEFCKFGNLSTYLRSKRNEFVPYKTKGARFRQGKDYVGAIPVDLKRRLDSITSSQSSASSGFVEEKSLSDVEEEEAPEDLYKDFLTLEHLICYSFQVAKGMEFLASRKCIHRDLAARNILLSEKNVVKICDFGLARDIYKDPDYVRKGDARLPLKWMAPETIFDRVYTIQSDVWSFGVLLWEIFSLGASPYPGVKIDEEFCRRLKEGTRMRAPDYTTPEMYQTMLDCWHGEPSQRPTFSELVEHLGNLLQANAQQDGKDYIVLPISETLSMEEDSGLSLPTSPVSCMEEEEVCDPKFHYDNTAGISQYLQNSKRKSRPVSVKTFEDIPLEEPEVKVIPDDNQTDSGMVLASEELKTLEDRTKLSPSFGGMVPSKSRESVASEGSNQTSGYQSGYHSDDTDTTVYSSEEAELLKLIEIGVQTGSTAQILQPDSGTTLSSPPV
Fibroblast growth factor receptor 1 (Homo sapiens), sequence (P11362 22-822 limits assumed): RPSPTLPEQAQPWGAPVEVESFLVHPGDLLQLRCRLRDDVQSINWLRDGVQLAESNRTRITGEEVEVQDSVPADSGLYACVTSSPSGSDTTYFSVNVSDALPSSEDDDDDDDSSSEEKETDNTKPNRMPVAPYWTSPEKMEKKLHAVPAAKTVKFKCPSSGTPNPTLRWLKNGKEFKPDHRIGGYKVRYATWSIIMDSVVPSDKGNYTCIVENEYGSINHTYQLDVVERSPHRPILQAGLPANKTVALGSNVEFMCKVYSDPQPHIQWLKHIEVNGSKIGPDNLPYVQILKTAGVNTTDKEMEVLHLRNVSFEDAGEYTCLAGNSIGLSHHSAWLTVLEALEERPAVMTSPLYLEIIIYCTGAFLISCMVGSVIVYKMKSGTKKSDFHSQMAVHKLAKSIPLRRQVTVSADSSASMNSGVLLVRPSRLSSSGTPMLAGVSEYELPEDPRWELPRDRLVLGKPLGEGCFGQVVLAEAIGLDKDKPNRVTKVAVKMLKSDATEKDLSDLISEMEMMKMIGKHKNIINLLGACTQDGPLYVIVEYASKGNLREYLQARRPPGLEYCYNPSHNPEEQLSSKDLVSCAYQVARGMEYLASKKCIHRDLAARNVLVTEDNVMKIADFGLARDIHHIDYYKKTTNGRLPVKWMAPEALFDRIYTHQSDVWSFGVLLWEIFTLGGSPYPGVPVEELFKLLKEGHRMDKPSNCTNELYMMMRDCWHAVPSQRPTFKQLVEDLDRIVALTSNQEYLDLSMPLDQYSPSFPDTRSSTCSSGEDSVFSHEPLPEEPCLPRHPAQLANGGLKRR
Calcium/calmodulin-dependent protein kinase type II subunit gamma (Homo sapiens), sequence (Q13555 whole entry): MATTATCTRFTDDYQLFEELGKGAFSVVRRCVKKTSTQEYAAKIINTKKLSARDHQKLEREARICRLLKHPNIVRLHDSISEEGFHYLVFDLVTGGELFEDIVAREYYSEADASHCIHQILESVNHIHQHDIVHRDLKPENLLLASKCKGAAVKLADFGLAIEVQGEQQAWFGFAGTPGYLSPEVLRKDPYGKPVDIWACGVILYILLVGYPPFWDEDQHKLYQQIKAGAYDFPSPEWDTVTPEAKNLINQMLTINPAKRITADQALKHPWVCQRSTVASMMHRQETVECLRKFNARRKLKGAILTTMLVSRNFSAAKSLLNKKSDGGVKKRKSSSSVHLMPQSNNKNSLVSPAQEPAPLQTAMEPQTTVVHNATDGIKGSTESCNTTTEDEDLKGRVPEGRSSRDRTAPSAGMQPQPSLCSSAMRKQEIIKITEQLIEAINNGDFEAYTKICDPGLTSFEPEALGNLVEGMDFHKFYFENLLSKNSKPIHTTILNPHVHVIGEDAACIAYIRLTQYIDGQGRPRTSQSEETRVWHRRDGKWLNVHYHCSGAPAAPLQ

As a reminder, the inhibition is the drop in the measured response relative to a control, in per cent. In the case of `NCC1CCN(c2ncnc3[nH]ccc23)CC1`, the inhibition in [1] is 7%; in assay [2] it was 50%.

For the compound `c1nc(N2CCOCC2)c2nc[nH]c2n1`, in [3], the inhibition is 52%.

For the compound `C[C@H](CN(C)C)Oc1nc(Nc2cc3cccc(Cl)c3cn2)cnc1C#N`, the inhibition amounted to 0% in assay [4], 6% in [5], 6% in assay [6] and 0% in assay [7].

On to `Clc1ccc(C2(c3ccc(-c4ncnc5[nH]cnc45)cc3)CCNCC2)cc1`, for which the inhibition in [8] came to 87.5%.

For `NCC1CN(c2ncnc3[nH]c4cnccc4c23)CCO1` (stereo not drawn), in [9], the inhibition amounted to 43.5%.

Consider `CNCc1ccc(-c2ncnc3[nH]cnc23)cc1`, for which the inhibition is 61% in [10] and 43% in [11].

As for `c1cnc2[nH]ccc2c1`, the inhibition in assay [12] is 64%; in [13] it was 52%.
